# Results from patent US8202865B2, “Oxadiazole derivatives” (Merck Serono SA, priority 2007, dated 2012).
# pEC50: −log10 of the molar value. Structures can show the parent of a compound that is named as a salt.
# Molecular target: T1, S1P1 (Homo sapiens, UniProt P21453)
# T1 construct: expressed in transfected cells; host or cells: CHO cells (membranes)
# Assay: 35S-GTPγS binding, S1P1 membranes
# Type: biochemical
# Conditions: membranes from CHO cells expressing S1P1; 60 min 30° C.
# Description: Receptor binding assay: Membranes were prepared from CHO cells expressing S1P1 or S1P3 for use in ligand and […] binding studies. Cells were suspended in 50 mM TRIS, pH 7.4, 2 mM EDTA, 250 mM Sucrose (buffer A) and 1× Complete protease inhibitor cocktail (Roche), and disrupted at 4° C. by N2 decompression using a cell disruption bomb (Parr Instrument). Following centrifugation at 1000 RPM for 10 min at 4° C., the supernatant was suspended in buffer A and centrifuged again at 19000 RPM for 60 min at 4° C. The pellet was then suspended in 10 mM HEPES, pH 7.4, 1 mM EDTA, 250 mM Sucrose (Buffer B), and 1× Complete EDTA-free protease inhibitor cocktail and homogenized using a potter. Membranes were flash frozen in liquid N2 and stored at −80° C. [33P]sphingosine 1-phosphate (3000 Ci/mmol; American Radiolabeled Chemicals, Inc.) was added to test compounds in DMSO. Membranes and WGA SPA beads (GE Healthcare) were added to give a final volume of 100 μl in 96-well plates with assay concentrations of 25 pM or 10 pM [33P]sphingosine 1-phosphate (respectively for S1P1 or S1P3), 50 mM HEPES, pH 7.5, 5 mM MgCl2, 100 mM NaCl, 0.4% fatty acid-free BSA, 1-5 μg/well of proteins and 100 μg/well of WGA SPA beads. Binding was performed for 60 min at RT on a shaker and bound radioactivity was measured on a PerkinElmer 1450 MicroBeta counter. Specific binding was calculated by subtracting remaining radioactivity in the presence of 1000-fold excess of unlabeled S1P. Binding data were analyzed using the GraphPad Prism program.
# Measurements of ^35S-GTPγS Binding: Membranes (1 to 10 μg protein) prepared as described above, were incubated in 96-well Scintiplates (PerkinElmer) with test compounds diluted in DMSO, in 180 μl of 20 mM HEPES, pH 7.4, 10 mM MgCl2, 2 μg/well Saponin, 0.2% fatty acid free BSA (Assay buffer), 140 mM NaCl and 1.7 μM GDP. The assay was initiated with the addition of 20 μl of 1.5 nM [35S]-GTPγS (1100 Ci/mmol; GE Healthcare) in assay buffer. After 60 min incubation at 30° C. on a shaker, plates were centrifuged for 10 min at 2000 RPM. Supernatant was discarded and membrane bound radioactivity was measured on a PerkinElmer 1450 MicroBeta counter. Triplicate samples were averaged and expressed as % response relative to S1P activation in absence of compound (n=2).
# T1 sequence (P21453 whole entry, species assumed): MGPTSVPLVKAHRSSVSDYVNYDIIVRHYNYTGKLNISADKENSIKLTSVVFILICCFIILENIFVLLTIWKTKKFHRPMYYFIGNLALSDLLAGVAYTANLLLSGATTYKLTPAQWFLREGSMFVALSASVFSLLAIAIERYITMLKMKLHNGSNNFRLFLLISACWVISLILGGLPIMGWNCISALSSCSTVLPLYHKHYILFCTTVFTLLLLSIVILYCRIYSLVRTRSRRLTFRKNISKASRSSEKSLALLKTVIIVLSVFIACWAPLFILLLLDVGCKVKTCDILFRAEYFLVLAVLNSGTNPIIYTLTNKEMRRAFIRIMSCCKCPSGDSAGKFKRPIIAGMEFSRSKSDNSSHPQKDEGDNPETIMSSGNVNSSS
row,Structure (SMILES),pEC50
1,"COCc1cc(-c2nc(-c3ccc(F)c(CN(C)CCC(=O)O)c3)no2)ccc1-c1ccccc1C [Example 154, N-(2-fluoro-5-{5-[2-(methoxymethyl)-2′-methylbiphenyl-4-yl]-1,2,4-oxadiazol-3-yl}benzyl)-N-methyl-beta-alanine, Hydrochloride salt]",8.92
2,"COCc1cc(-c2nc(-c3ccc(C(=O)O)c(F)c3)no2)ccc1-c1ccccc1Cl [Example 98, 4-{5-[2′-chloro-2-(methoxymethyl)biphenyl-4-yl]-1,2,4-oxadiazol-3-yl}-2-fluorobenzoic acid]",7.17
3,"COCCCc1cc(-c2nc(-c3ccc(C(=O)O)c(F)c3)no2)ccc1-c1ccccc1C [Example 100, 2-fluoro-4-{5-[2-(3-methoxypropyl)-2′-methylbiphenyl-4-yl]-1,2,4-oxadiazol-3-yl}benzoic acid]",6.27
4,"COCc1cc(-c2nc(-c3ccc(C(=O)O)c(F)c3)no2)ccc1OC(C)C [Example 111, 2-fluoro-4-{5-[4-isopropoxy-3-(methoxymethyl)phenyl]-1,2,4-oxadiazol-3-yl}benzoic acid]",6.21
5,"COCc1cc(-c2nc(-c3cccc(CNCCC(=O)O)c3)no2)ccc1-c1ccccc1C [Example 155, N-(3-{5-[2-(methoxymethyl)-2′-methylbiphenyl-4-yl]-1,2,4-oxadiazol-3-yl}benzyl)-beta-alanine, Hydrochloride salt]",9.40
6,"COCc1cc(-c2nc(-c3cc(C(=O)O)ccc3OC)no2)ccc1-c1ccccc1C [Example 107, 4-methoxy-3-{5-[2-(methoxymethyl)-2′-methylbiphenyl-4-yl]-1,2,4-oxadiazol-3-yl}benzoic acid]",6.88
7,"CCOC(=O)C1(NC(=O)c2cccc(-c3noc(-c4ccc(-c5ccccc5C)c(COC)c4)n3)c2)CC1 [Example 131, Ethyl 1-[(3-{5-[2-(methoxymethyl)-2′-methylbiphenyl-4-yl]-1,2,4-oxadiazol-3-yl}benzoyl)amino]cyclopropanecarboxylate]",7.46
8,"CCc1ccccc1-c1ccc(-c2nc(-c3ccc(C(=O)OC)c(F)c3)no2)cc1COC [Example 80, methyl 4-{5-[2′-ethyl-2-(methoxymethyl)biphenyl-4-yl]-1,2,4-oxadiazol-3-yl}-2-fluorobenzoate]",6.56
9,"Cc1cc(-c2nc(-c3ccc(C(=O)O)c(F)c3)no2)ccc1N1CCCCC1 [Example 16, 2-fluoro-4-[5-(3-methyl-4-piperidin-1-ylphenyl)-1,2,4-oxadiazol-3-yl]benzoic acid]",5.69
10,"COCc1cc(-c2nc(-c3cccc(C(=O)NCCCC(=O)O)c3)no2)ccc1-c1ccccc1C [Example 139, 4-[(3-{5-[2-(methoxymethyl)-2′-methylbiphenyl-4-yl]-1,2,4-oxadiazol-3-yl}benzoyl)amino]butanoic acid]",8.02
11,COCCOCc1cccc(-c2noc(-c3ccc(-c4ccccc4C)c(COC)c3)n2)c1 [Example 192],8.21
12,"COCc1cc(-c2nc(-c3ccc(F)c(CN(C)CCC(=O)O)c3)no2)ccc1OC(C)C [Example 157, N-(2-fluoro-5-{5-[4-isopropoxy-3-(methoxymethyl)phenyl]-1,2,4-oxadiazol-3-yl}benzyl)-N-methyl-beta-alanine, Hydrochloride salt]",8.40
13,"COCc1cc(-c2nc(-c3ccc(C(=O)NC(C)(C)C(=O)OC)c(F)c3)no2)ccc1-c1ccccc1C [Example 128, Methyl N-(2-fluoro-4-{5-[2-(methoxymethyl)-2′-methylbiphenyl-4-yl]-1,2,4-oxadiazol-3-yl}benzoyl)-2-methylalaninate]",6.81
14,"CCOc1ccccc1-c1ccc(-c2nc(-c3ccc(C(=O)O)c(F)c3)no2)cc1COC [Example 90, 4-{5-[2′-ethoxy-2-(methoxymethyl)biphenyl-4-yl]-1,2,4-oxadiazol-3-yl}-2-fluorobenzoic acid]",6.32
15,"COCc1cc(-c2nc(-c3cccc(CNCCO)c3)no2)ccc1-c1ccccc1C [Example 187, 2-[(3-{5-[2-(methoxymethyl)-2′-methylbiphenyl-4-yl]-1,2,4-oxadiazol-3-yl}benzyl)amino]ethanol, Hydrochloride salt]",8.70
16,"COCc1cc(-c2nc(-c3cccc(CNCCC(=O)OC)c3)no2)ccc1-c1ccccc1C [Example 145, Methyl N-(3-{5-[2-(methoxymethyl)-2′-methylbiphenyl-4-yl]-1,2,4-oxadiazol-3-yl}benzyl)-beta-alaninate]",8.64
17,"CCOC(=O)C1(NCc2cccc(-c3noc(-c4ccc(-c5ccccc5C)c(COC)c4)n3)c2)CC1 [Example 140, Ethyl 1-[(3-{5-[2-(methoxymethyl)-2′-methylbiphenyl-4-yl]-1,2,4-oxadiazol-3-yl}benzyl)amino]cyclopropanecarboxylate]",6.85
18,"COCc1cc(-c2nc(-c3cccc(COCCO)c3)no2)ccc1-c1ccccc1C [Example 193, 2-[(3-{5-[2-(methoxymethyl)-2′-methylbiphenyl-4-yl]-1,2,4-oxadiazol-3-yl}benzyl)oxy]ethanol]",8.74
19,"O=C(O)c1ccc(-c2noc(-c3ccc([N+](=O)[O-])c(N4CCCCC4)c3)n2)cc1F [Example 21, 2-fluoro-4-[5-(4-nitro-3-piperidin-1-ylphenyl)-1,2,4-oxadiazol-3-yl]benzoic acid]",5.01

# Continued by rising pEC50, values first:
row,pEC50,Structure (SMILES)
1,5.00,"CCCN(CC(C)C)c1ccc(-c2nc(-c3ccc(C(=O)O)c(F)c3)no2)cc1NS(C)(=O)=O [Example 66, 2-fluoro-4-(5-{4-[isobutyl(propyl)amino]-3-[(methylsulfonyl)amino]phenyl}-1,2,4-oxadiazol-3-yl)benzoic acid]"
2,5.53,"Cc1ccccc1-c1ccc(-c2nc(-c3ccc(C(=O)O)c(F)c3)no2)cc1CO [Example 58, 2-fluoro-4-{5-[2-(hydroxymethyl)-2′-methylbiphenyl-4-yl]-1,2,4-oxadiazol-3-yl}benzoic acid]"
3,5.64,"COc1cc(-c2noc(-c3ccc(-c4ccccc4C)c(C)c3)n2)ccc1C(=O)O [Example 46, 4-[5-(2,2′-dimethylbiphenyl-4-yl)-1,2,4-oxadiazol-3-yl]-2-methoxybenzoic acid]"
4,5.84,"Cc1cc(-c2nc(-c3ccc(O)c(C(=O)O)c3)no2)ccc1-c1cscc1C [Example 44, 2-hydroxy-5-{5-[3-methyl-4-(4-methyl-3-thienyl)phenyl]-1,2,4-oxadiazol-3-yl}benzoic acid]"
5,6.39,"COCc1cc(-c2nc(-c3ccc(C(=O)O)c(F)c3)no2)ccc1-c1cc(F)ccc1F [Example 91, 4-{5-[2′,5′-difluoro-2-(methoxymethyl)biphenyl-4-yl]-1,2,4-oxadiazol-3-yl}-2-fluorobenzoic acid]"
6,6.61,"COCc1cc(-c2nc(-c3cc(Cl)c(C(=O)O)cc3OC)no2)ccc1-c1ccccc1C [Example 115, 2-chloro-5-methoxy-4-{5-[2-(methoxymethyl)-2′-methylbiphenyl-4-yl]-1,2,4-oxadiazol-3-yl}benzoic acid]"
7,6.71,"CCc1cnc(CCNC(=O)c2ccc(-c3noc(-c4ccc(-c5ccccc5C)c(COC)c4)n3)cc2F)o1 [Example 176, N-[2-(5-ethyl-1,3-oxazol-2-yl)ethyl]-2-fluoro-4-{5-[2-(methoxymethyl)-2′-methylbiphenyl-4-yl]-1,2,4-oxadiazol-3-yl}benzamide]"
8,7.46,"COCc1cc(-c2nc(-c3ccc(C(=O)NCCCC(=O)OC)c(F)c3)no2)ccc1-c1ccccc1C [Example 126, Methyl 4-[(2-fluoro-4-{5-[2-(methoxymethyl)-2′-methylbiphenyl-4-yl]-1,2,4-oxadiazol-3-yl}benzoyl)amino]butanoate]"
9,8.26,"CCOC(=O)CCCOc1ccc(-c2noc(-c3ccc(N4CCCCC4C)c(COC)c3)n2)cc1F (stereo not drawn) [Example 163, ethyl 4-(2-fluoro-4-{5-[3-(methoxymethyl)-4-(2-methylpiperidin-1-yl)phenyl]-1,2,4-oxadiazol-3-yl}phenoxy)butanoate]"
10,8.30,"CCc1ccccc1-c1ccc(-c2nc(-c3ccc(OCCCC(=O)O)c(F)c3)no2)cc1COC [Example 162, 4-(4-{5-[2′-ethyl-2-(methoxymethyl)biphenyl-4-yl]-1,2,4-oxadiazol-3-yl}-2-fluorophenoxy)butanoic acid]"
11,8.82,"CC1CCCCN1c1ccc(-c2nc(-c3ccc(S(N)(=O)=O)cc3)no2)cc1C(F)(F)F (stereo not drawn) [Example 38, 4-{5-[4-(2-methylpiperidin-1-yl)-3-(trifluoromethyl)phenyl]-1,2,4-oxadiazol-3-yl}benzenesulfonamide]"
